Results as given in paper PMC10223019, “Preclinical Evaluation of a PSMA-Targeting Homodimer with an Optimized Linker for Imaging of Prostate Cancer” (Molecules, 2023).
Where “and” joins values, the source holds several entries; their conditions need not be identical. Equal entries are not always repeated.

How the values were obtained:
[1] = test system: BALB/c nude mice bearing LS174T PSMA-positive tumor xenografts; assay: Ex vivo biodistribution studies; type: in vivo
Description: Animal experiments were performed in 8–10 weeks old male BALB/c nude mice (Janvier Labs, Le Genest-Saint-Isle, France). Animals were housed in individually ventilated cages (Blue line IVC, 4 mice per cage) under nonsterile standard conditions with cage enrichment present and free access to chlorophyll-free animal chow (Sniff GmbH, Soest, Germany) and water and acclimated for 1 week before experiments. Mice were subcutaneously inoculated with 4.0 × 10^6 LS174T cells in the right flank, diluted in 100 μL of cell suspension. Seven days after tumor cell inoculation, when xenografts were approximately 0.2–0.3 cm^3, the tracers were injected intravenously via the tail vein. All experiments were approved by the institutional Animal Welfare Committee and were conducted in accordance with the guidelines of the Revised Dutch Act on Animal Experimentation (WOD).
Mice were intravenously injected with ~1 nmol of either [^111In]In-PSMA-617, [^111In]In-22 or [^111In]In-30 with molar activity of 5 MBq/nmol for ex vivo biodistribution studies. Mice (n = 4/timepoint) were euthanized by cervical dislocation at 1, 4, and 24 h p.i. A block group was included, and mice were euthanized at 4 h p.i. Organs were collected in tubes and counted in the gamma counter, where the calibration factor was determined by measuring different known activities of indium-111.

[2] = Stability in mouse serum, radio-HPLC; type: in vitro ADME; settings: 24 h post-incubation, 37 °C, indium-111 labeled, intact fraction
Description: [^111In]In-22 or [^111In]In-30 (~35 MBq, 70 µL) was mixed with 330 μL of mouse serum and incubated at 37 °C for up to 24 h. After 1, 4, and 24 h incubation, 50 μL of the mouse serum solution was added to a separate vial containing 50 µL of acetonitrile. The sample was centrifuged at 5000× g for 20 min. The supernatant was analyzed by radio-HPLC.

[3] = LogD7.4 by shake-flask method (PBS/n-octanol); type: physicochemical; settings: LogD7.4, PBS pH 7.4/n-octanol, indium-111 labeled compound
Description: The distribution coefficients (LogD7.4 values) were determined by a shake-flask method, in which 2 μL (~0.5 MBq) of the labeling solution ([^111In]In-22 or [^111In]In-30) were added to an Eppendorf tube containing 1 mL of PBS (0.01 M, pH 7.4)/n-octanol (v/v, 1:1). After vigorous vortexing, the solution was centrifuged at 2500× g for 15 min for phase separation. Samples (3 × 10 μL) of the two phases were taken out and measured in a gamma counter. LogD7.4 values were calculated by using the following equation: LogD7.4 = log [(counts in octanol phase)/(counts in aqueous phase)] and the experiment was performed in triplicate.

[4] = test system: PSMA expressing LS174T cells; assay: Internalization and cell uptake assay; type: cell-based, human; settings: 2 h 37 °C
Description: LS174T human colon carcinoma cells transfected with human PSMA were obtained from Dr. Sandra Heskamp (Radboud UMC, Nijmegen). Cells were cultured in RPMI-1640 media supplemented with 2 mM glutamine, 10% fetal bovine serum (FBS) and 0.3 mg/mL G418 (Geneticin, Sigma Aldrich, St. Louis, MO, USA).
Cells were seeded (1.2 × 10^6 cells/well) and cultured to confluency for 24 h prior to experiments. We prepared 10^−9 M solutions of [^111In]In-PSMA-617, [^111In]In-22, and [^111In]In-30 in internalization media (RPMI, 20 mM HEPES, 1% BSA, pH 7.4). The media were removed from each well, and they were rinsed twice with PBS at rt. 2 mL of the radioactive compound was then added to each well and incubated at 37 °C for 2 h. For the internalization assay, the media containing radioactive compound were removed, and each well was washed twice with cold PBS. A total of 1 mL of Glycine buffer (50 mM glycine, 100 mM NaCl, pH 2.8) was added immediately and incubated for 10 min at rt. The glycine wash was then collected into counting tubes (membrane-bound fraction). An extra wash was performed and collected in the same tubes. A total of 1 mL of NaOH (1 M) was then added to each tube and left for 15 min at rt. The lysate (internalized fraction) was then collected in separate counting tubes, together with one extra NaOH wash. Data were normalized to 1,000,000 cells and percentage added dose.

[5] = Stability in phosphate-buffered saline (PBS), radio-HPLC; type: physicochemical; settings: 24 h post-incubation, 37 °C, indium-111 labeled, intact fraction
Description: [^111In]In-22 or [^111In]In-30 (~10 MBq, 20 µL) was mixed with 80 μL of PBS (0.01 M, pH 7.4) and incubated at 37 °C for up to 24 h. A sample of the PBS solution was loaded directly onto the radio-HPLC at 1, 4, and 24 h post-incubation.

[6] = 4 h p.i. block group (excess unlabeled PSMA ligand)

Blood uptake ([1]; 1 h p.i., i.v. ~1 nmol): 4.84 ± 1.44 % ID/g | Bone uptake ([1]; 1 h p.i., i.v. ~1 nmol): 3.00 ± 0.53 % ID/g | Heart uptake ([1]; 1 h p.i., i.v. ~1 nmol): 2.58 ± 0.79 % ID/g | Intestines uptake ([1]; 1 h p.i., i.v. ~1 nmol): 0.87 ± 0.08 % ID/g | Kidney uptake ([1]; 1 h p.i., i.v. ~1 nmol): 138.54 ± 1.44 % ID/g | Liver uptake ([1]; 1 h p.i., i.v. ~1 nmol): 3.94 ± 0.26 % ID/g | Lung uptake ([1]; 1 h p.i., i.v. ~1 nmol): 2.81 ± 0.36 % ID/g | Muscle uptake ([1]; 1 h p.i., i.v. ~1 nmol): 1.13 ± 0.22 % ID/g | Pancreas uptake ([1]; 1 h p.i., i.v. ~1 nmol): 1.47 ± 0.33 % ID/g | Prostate uptake ([1]; 1 h p.i., i.v. ~1 nmol): 3.53 ± 2.05 % ID/g | Skin uptake ([1]; 1 h p.i., i.v. ~1 nmol): 4.44 ± 1.06 % ID/g | Spleen uptake ([1]; 1 h p.i., i.v. ~1 nmol): 3.30 ± 0.59 % ID/g | Stomach uptake ([1]; 1 h p.i., i.v. ~1 nmol): 0.47 ± 0.34 % ID/g | Tumor uptake ([1]; 1 h p.i., i.v. ~1 nmol): 4.95 ± 1.01 % ID/g | Blood uptake [1, 6]: 0.78 ± 0.04 % ID/g | Bone uptake [1, 6]: 1.27 ± 0.23 % ID/g | Heart uptake [1, 6]: 0.82 ± 0.10 % ID/g | Intestines uptake [1, 6]: 0.48 ± 0.03 % ID/g | Kidney uptake [1, 6]: 120.93 ± 4.75 % ID/g | Liver uptake [1, 6]: 1.84 ± 0.07 % ID/g | Lung uptake [1, 6]: 0.84 ± 0.07 % ID/g | Muscle uptake [1, 6]: 0.47 ± 0.08 % ID/g | Pancreas uptake [1, 6]: 0.54 ± 0.07 % ID/g | Prostate uptake [1, 6]: 0.94 ± 0.30 % ID/g | Skin uptake [1, 6]: 1.42 ± 0.18 % ID/g | Spleen uptake [1, 6]: 1.20 ± 0.14 % ID/g | Stomach uptake [1, 6]: 0.33 ± 0.12 % ID/g | Tumor uptake [1, 6]: 1.42 ± 0.14 % ID/g | Blood uptake ([1]; 4 h p.i., i.v. ~1 nmol): 1.02 ± 0.29 % ID/g | Bone uptake ([1]; 4 h p.i., i.v. ~1 nmol): 1.44 ± 0.54 % ID/g | Heart uptake ([1]; 4 h p.i., i.v. ~1 nmol): 0.96 ± 0.22 % ID/g | Intestines uptake ([1]; 4 h p.i., i.v. ~1 nmol): 0.92 ± 0.58 % ID/g | Kidney uptake ([1]; 4 h p.i., i.v. ~1 nmol): 132.89 ± 11.12 % ID/g | Liver uptake ([1]; 4 h p.i., i.v. ~1 nmol): 2.41 ± 0.35 % ID/g | Lung uptake ([1]; 4 h p.i., i.v. ~1 nmol): 0.77 ± 0.52 % ID/g | Muscle uptake ([1]; 4 h p.i., i.v. ~1 nmol): 0.64 ± 0.30 % ID/g | Pancreas uptake ([1]; 4 h p.i., i.v. ~1 nmol): 0.66 ± 0.24 % ID/g | Prostate uptake ([1]; 4 h p.i., i.v. ~1 nmol): 1.27 ± 0.69 % ID/g | Skin uptake ([1]; 4 h p.i., i.v. ~1 nmol): 1.92 ± 0.49 % ID/g | Spleen uptake ([1]; 4 h p.i., i.v. ~1 nmol): 1.40 ± 0.20 % ID/g | Stomach uptake ([1]; 4 h p.i., i.v. ~1 nmol): 0.31 ± 0.08 % ID/g | Tumor uptake ([1]; 4 h p.i., i.v. ~1 nmol): 2.94 ± 0.36 % ID/g | Tumor-to-muscle (T/M) ratio ([1]; 24 h p.i.): 15 | Blood uptake ([1]; 24 h p.i., i.v. ~1 nmol): 0.09 ± 0.01 % ID/g | Bone uptake ([1]; 24 h p.i., i.v. ~1 nmol): 0.60 ± 0.04 % ID/g | Heart uptake ([1]; 24 h p.i., i.v. ~1 nmol): 0.21 ± 0.01 % ID/g | Intestines uptake ([1]; 24 h p.i., i.v. ~1 nmol): 0.19 ± 0.06 % ID/g | Kidney uptake ([1]; 24 h p.i., i.v. ~1 nmol): 26.86 ± 2.37 % ID/g | Liver uptake ([1]; 24 h p.i., i.v. ~1 nmol): 0.80 ± 0.04 % ID/g | Lung uptake ([1]; 24 h p.i., i.v. ~1 nmol): 0.28 ± 0.03 % ID/g | Muscle uptake ([1]; 24 h p.i., i.v. ~1 nmol): 0.15 ± 0.03 % ID/g | Pancreas uptake ([1]; 24 h p.i., i.v. ~1 nmol): 0.17 ± 0.00 % ID/g | Prostate uptake ([1]; 24 h p.i., i.v. ~1 nmol): 0.40 ± 0.10 % ID/g | Skin uptake ([1]; 24 h p.i., i.v. ~1 nmol): 0.77 ± 0.13 % ID/g | Spleen uptake ([1]; 24 h p.i., i.v. ~1 nmol): 0.58 ± 0.04 % ID/g | Stomach uptake ([1]; 24 h p.i., i.v. ~1 nmol): 0.11 ± 0.07 % ID/g | Tumor uptake ([1]; 24 h p.i., i.v. ~1 nmol): 1.57 ± 0.17 % ID/g | Tumor-to-muscle (T/M) ratio ([1]; at 1 and 4 h p.i.): 4–5 | Stability in Mouse Serum (%) [2]: 90.1% | logD [3]: −2.44 ± 0.07 | Stability in PBS (%) [5]: 90.8%
Structure (SMILES): CC(C)CC(NC(=O)C(Cc1ccccc1)NC(=O)C(CC(=O)O)NC(=O)CCCCCSC1=NNC(SCCCCCC(=O)NC(CC(=O)O)C(=O)NC(Cc2ccccc2)C(=O)NC(CC(C)C)C(O)CC(=O)NCCCCCC(=O)NCCCCC(NC(=O)NC(CCC(=O)O)C(=O)O)C(=O)O)=C2CCC(OC(=O)NCCCNC(=O)CN3CCN(CC(=O)[O-])CCN(CC(=O)[O-])CCN(CC(=O)[O-])CC3)CCCC12)C(O)CC(=O)NCCCCCC(=O)NCCCCC(NC(=O)NC(CCC(=O)O)C(=O)O)C(=O)O.[111In+3] (stereo not drawn) [[^111In]In-30]
Internalized fraction ([4]; 10^-9 M, NaOH lysate): 3.51 ± 0.68 % AD | Membrane-bound uptake ([4]; 10^-9 M, glycine wash): 0.26 ± 0.09 % AD | Total uptake ([4]; 10^-9 M, normalized to 1,000,000 cells): 3.79 ± 0.74 % AD | Internalized fraction as share of total uptake (internalization) [4]: 92% and 92.6% | Membrane-bound uptake as share of total uptake [4]: 7.4%
